The values below come from ChEMBL document CHEMBL1201862, “PubChem BioAssay data set” (2004).

The structures appear in SMILES notation. Calls of active or inactive are those of the source. A value given as a limit tells only on which side of the number the result lay.

The test system of experiment [1] is P388/ADR. Briefly: cells. The class given is functional. As to conditions: Mus musculus.
For experiment [2], the system named is SN12K1. Briefly: cells. The class given is functional. As to conditions: Homo sapiens.
Experiment [3] relates to P388. Briefly: cells. The class given is functional. As to conditions: Mus musculus.
For experiment [4], the target named is T1, Probable nicotinate-nucleotide adenylyltransferase (Staphylococcus aureus (strain N315), UniProt P65502). The class given is functional, Staphylococcus aureus subsp. aureus N315.
Experiment [5] concerns the target T1, Probable nicotinate-nucleotide adenylyltransferase. The class given is functional, Staphylococcus aureus subsp. aureus N315. As to conditions: read-out: IC50_Mean.
The target of experiment [6] is T2, High affinity choline transporter 1 (Homo sapiens, UniProt Q9GZV3).
T2 sequence (Q9GZV3 whole entry): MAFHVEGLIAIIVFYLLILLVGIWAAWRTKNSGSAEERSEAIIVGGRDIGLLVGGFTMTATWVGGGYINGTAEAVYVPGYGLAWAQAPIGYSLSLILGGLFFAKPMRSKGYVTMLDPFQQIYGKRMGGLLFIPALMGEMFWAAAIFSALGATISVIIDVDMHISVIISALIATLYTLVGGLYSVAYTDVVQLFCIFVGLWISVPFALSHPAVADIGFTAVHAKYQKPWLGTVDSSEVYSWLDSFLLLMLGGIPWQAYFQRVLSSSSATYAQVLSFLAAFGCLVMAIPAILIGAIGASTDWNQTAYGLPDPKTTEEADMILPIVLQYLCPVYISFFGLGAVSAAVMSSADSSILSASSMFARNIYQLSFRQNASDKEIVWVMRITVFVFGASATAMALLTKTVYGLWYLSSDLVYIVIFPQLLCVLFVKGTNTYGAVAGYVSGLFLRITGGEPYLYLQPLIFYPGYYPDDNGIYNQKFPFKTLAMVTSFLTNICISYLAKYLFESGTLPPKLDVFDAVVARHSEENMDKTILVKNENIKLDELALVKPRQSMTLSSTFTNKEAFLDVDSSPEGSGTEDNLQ
As to the kind of experiment: CHT inhibitors, dose response, cell-based, 5-point CRC, membrane potential dye (AID 504840). In kind it is functional.

For experiment [7], the target named is T3, Adenosylmethionine-8-amino-7-oxononanoate aminotransferase (Mycobacterium tuberculosis, UniProt P9WQ81).
T3 sequence (P9WQ81 whole entry): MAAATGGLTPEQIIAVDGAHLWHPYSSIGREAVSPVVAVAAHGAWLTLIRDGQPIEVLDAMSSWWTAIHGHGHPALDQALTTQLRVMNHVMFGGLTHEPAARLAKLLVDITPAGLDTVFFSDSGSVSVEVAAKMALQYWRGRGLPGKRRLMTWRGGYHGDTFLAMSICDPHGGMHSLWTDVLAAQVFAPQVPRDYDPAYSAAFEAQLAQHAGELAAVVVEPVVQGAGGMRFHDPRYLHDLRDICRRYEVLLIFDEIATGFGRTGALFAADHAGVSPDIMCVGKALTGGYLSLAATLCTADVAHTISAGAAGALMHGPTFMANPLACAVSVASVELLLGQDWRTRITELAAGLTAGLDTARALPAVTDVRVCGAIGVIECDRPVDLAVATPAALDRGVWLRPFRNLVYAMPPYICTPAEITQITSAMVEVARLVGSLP
As to the kind of experiment: Mycobacterium tuberculosis BioA enzyme inhibitor Measured in Biochemical System Using Plate Reader - 2163-02_Inhibitor_Dose_CherryPick_Activity. In kind it is functional, Mycobacterium tuberculosis UT205.
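Wherever IC50 Mean is given: confirmatory dose-response retesting of NadD inhibitor hits first found in an ultra-high-throughput screen.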

T1 sequence (P65502 whole entry): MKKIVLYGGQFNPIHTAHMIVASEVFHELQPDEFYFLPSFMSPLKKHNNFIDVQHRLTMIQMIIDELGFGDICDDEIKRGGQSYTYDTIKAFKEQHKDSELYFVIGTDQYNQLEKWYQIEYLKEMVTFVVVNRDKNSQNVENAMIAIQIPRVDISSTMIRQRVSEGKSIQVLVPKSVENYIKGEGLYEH

For the molecule `Cc1ccc(N2Cc3c(ccc4ccccc34)OP2(=S)N2CCCC2)cc1` (centres undefined), the values for the GI50 in experiment [1], in experiment [2] and in experiment [3] were 26.2 µM (inactive), > 77.6 µM (inactive) and 18.6 µM (inactive), respectively.

Regarding `Cc1ccccc1CSCC1Nc2ccc(C(=O)NCCc3ccccc3)cc2NC1=O` (centres undefined), the IC50 is 6.55 µM (active) in experiment [4] and 17.2 µM (active) in experiment [5].

As for `CN(Cc1ccccc1)S(=O)(=O)c1ccc2ncc(C(=O)NCC3CCCO3)c(O)c2c1` (centres undefined), in experiment [6], the IC50 was 15.2 µM (active).

Consider `CCOc1cc(C=C2C(=O)NC(=O)NC2=O)ccc1OS(=O)(=O)c1ccccc1`, for which, in experiment [6], the IC50 is 12.6 µM (active).

Regarding `O=C(Nc1cccnc1)C1CCN(S(=O)(=O)c2ccc(Cl)cc2)CC1`, the concentration at half-maximal activity (AC50) (in general, the concentration giving half of the maximal activity seen) in experiment [7] is 0.711 µM (active).

As to `O=C(c1cccc(F)c1)N1CC[C@@H]2[C@@H](CO)Nc3ccc(-c4cccc(F)c4)cc3[C@@H]21`, in experiment [7], the AC50 was 0.222 µM (active).

`Cc1[nH]c(=O)[nH]c(=O)c1/C=C/C(=O)NC(CO)CC(C)C` (centres undefined): the GI50 – broadly, the concentration at which growth is held to half of that of the control – was 174 µM (inactive) in experiment [1], > 360 µM (inactive) in experiment [2] and > 375 µM (inactive) in experiment [3].

For the molecule `N#CC1=C(S)N=C(N)C(c2nc(-c3ccccc3)cs2)C12CCCC2` (centres undefined), the IC50 is 8.09 µM (active) in experiment [4] and 19.1 µM (active) in experiment [5].

For the molecule `COCC(=O)N1CC[C@@H]2[C@@H](CO)N(C)c3ccc(-c4ccc(F)cc4)cc3[C@@H]21`, in experiment [7], the AC50 was 0.948 µM (active).

On to `CSCC[C@@H](NC(=O)[C@H](CC(C)C)NC(=O)C(Cc1cnc[nH]1)NC(=O)CNC(=O)[C@@H](NC(=O)[C@H](C)NC(=O)[C@H](Cc1cn(C=O)c2ccccc12)NC(=O)[C@H](CCC(N)=O)NC(=O)[C@@H](N)CC(N)=O)C(C)C)C(N)=O` (some centres undefined), for which the GI50 in experiment [1], in experiment [2] and in experiment [3] was > 100 µM (inactive) each time.

On to `Cc1n(CC(=O)c2ccc([N+](=O)[O-])cc2)c2c([n+]1CC(C)C)C(=O)c1ccccc1C2=O`, for which the values for the GI50 in experiment [1], in experiment [2] and in experiment [3] were 22.2 µM (inactive), < 0.01 µM (active) and 0.194 µM (active), respectively.

Take `C=CCn1c(SCc2c(C(=O)OC)sc(N)c2C(=O)OC)nnc1-c1ccc(Cl)cc1`: the AC50 in experiment [7] is 0.244 µM (active).

As for `NCCCCCC(CCN)SCC1OC(n2cnc3c(N)ncnc32)C(O)C1O` (centres undefined), the GI50 in experiment [1] is 124 µM (inactive); in experiment [2], 431 µM (inactive); in experiment [3], 637 µM (inactive).

Turning to `Cc1cnc(C(=O)NC2CC(C)(C)Cc3c2cnn3-c2cccc(F)c2)cn1` (centres undefined), in experiment [7], the AC50 was 1.63 µM (active).

As for `CO[C@H](C(=O)[C@@H](O)[C@@H](C)O)[C@@H]1Cc2cc3cc(OC4CC(OC5CC(O)C(O)C(C)O5)C(O)C(C)O4)c(C)c(O)c3c(O)c2C(=O)[C@H]1OC1CC(OC2CC(OC3CC(C)(O)C(O)C(C)O3)C(O)C(C)O2)C(O)C(C)O1` (some centres undefined), the GI50 in experiment [1] was 1.33 µM (inactive); in experiment [2], 0.348 µM (active); in experiment [3], 0.441 µM (active).
